The record followed here is patent US8815903B2, “Indole derivative and pharmacologically acceptable salt thereof” (Kissei Pharmaceutical Co., Ltd., priority 2011, dated 2014).

Assay [1] concerns the target T1, rat EP1 receptor (Rattus norvegicus, UniProt P70597).
T1 construct: expressed in transfected cells
T1 sequence (P70597 1-405): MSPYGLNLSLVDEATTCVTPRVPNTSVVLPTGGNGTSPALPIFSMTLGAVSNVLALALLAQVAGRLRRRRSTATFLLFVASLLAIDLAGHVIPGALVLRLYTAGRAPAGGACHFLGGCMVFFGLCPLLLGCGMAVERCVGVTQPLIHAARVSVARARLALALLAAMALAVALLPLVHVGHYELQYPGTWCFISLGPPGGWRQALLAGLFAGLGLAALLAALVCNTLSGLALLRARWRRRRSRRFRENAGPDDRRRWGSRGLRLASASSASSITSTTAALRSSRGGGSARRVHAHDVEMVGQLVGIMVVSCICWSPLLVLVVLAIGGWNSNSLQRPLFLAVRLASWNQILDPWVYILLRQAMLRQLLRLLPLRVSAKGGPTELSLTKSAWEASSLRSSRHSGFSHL
Briefly: Test for confirmation of EP1 receptor antagonism (inhibition of PGE2-induced increase in intracellular calcium concentration). The class given is cell-based. Particulars: rat EP1 receptor-expressing COS-1 cells; prostaglandin E2 10 nM; fluorescent calcium indicator, FDSS 7000. As to the method: Test for Confirmation of EP1 Receptor Antagonism
(1) Preparation of Rat EP1 Expression Vector
Using Rat Kidney BD Marathon-Ready cDNA (Nippon Becton Dickinson Company, Ltd.) as a template, a forward primer shown in (SEQ ID NO:1), and a reverse primer shown in (SEQ ID NO:2), a first run of PCR was carried out using KOD-Plus-Ver 2.0 (Toyobo Co., Ltd.). Further, using this amplification product as a template, a forward primer shown in (SEQ ID NO:3), and a reverse primer shown in (SEQ ID NO:4), a second run of PCR was carried out in the same manner. The amplification product obtained by the second run of PCR was incorporated into a vector (pcDNA3.1 D/V5-His-TOPO (registered trademark), Invitrogen Japan K. K.). By a conventional method, the vector containing this amplification product was introduced to E. coli (One Shot TOP 10 Competent Cells, Invitrogen Corporation) to transform. This transformed E. coli was cultured in an LB agar medium for one day. After the culture, colonies were selected and cultured in an LB liquid medium containing 50 μg/mL of ampicillin. After the culture, the vector was purified using a QIAprep Spin Miniprep Kit (Qiagen K. K.). The base sequence of the insertion site of this vector (SEQ ID NO:5) was compared with the rat EP1 base sequence (Ptger1) registered as Accession No. NM_013100 in publicly-known database (NCBI), and as a result, they all matched except for a single base. Further, the amino acid sequence translated by the base sequence completely matched the amino acid sequence of the rat EP1 receptor registered as an NCBI Accession No. NP_037232. Therefore, it was confirmed that the cloned gene sequence was a base sequence of the rat EP1 receptor and the obtained amino acid sequence was that of the rat EP1 receptor. The pcDNA3.1 D/V5-His-TOPO (registered trademark) to which the nucleic acid shown in (SEQ ID NO:5) had been inserted was taken as a rat EP1-expressing vector.
(2) Preparation of Rat EP1 Receptor-Expressing Cells
COS-1 cells (Dainippon Sumitomo Pharma Co., Ltd.) were cultured until they reached confluence in an incubator at 37° C. under a 5% CO2 gas condition, using a D-MEM liquid medium (high glucose and L-glutamine contained, Invitrogen Corporation) to which a penicillin-streptomycin solution (Invitrogen Corporation, final concentration: 100 U/mL as benzylpenicillin; 100 μg/mL as streptomycin) as an antibiotic, MEM nonessential amino acids (Invitrogen Corporation, final concentration: 0.1 mM), and fetal calf serum (Sanko Junyaku Co., Ltd., final concentration: 10%) were added.
The cells that had reached confluence were stripped with 0.05% trypsin/0.53 mM EDTA.4Na, and resuspended in a D-MEM liquid medium (high glucose and L-glutamine contained, Invitrogen Corporation) to which an MEM nonessential amino acid (final concentration: 0.1 mM) and fetal calf serum (final concentration: 10%) were added. In each well of a Poly D-lysine-coated 96-well microplate (BD BioCoat (registered trademark), Nippon Becton Dickinson Company, Ltd.), this resuspended cell suspension culture was prepared to be 5×10^4 cells/well in 100 μL of the liquid medium, and 100 μL of the cell suspension was seeded on each well. After seeding, the cells were cultured in an incubator at 37° C. under a 5% CO2 gas condition. At a point when the cells for introduction of a rat EP1-expressing vector were adhered (about 2 hours after seeding), introduction of the rat EP1-expressing vector was carried out in the following order.
For introduction of the rat EP1-expressing vector, Lipofectamine 2000 (Invitrogen Japan K. K.) was used. The rat EP1-expressing vector was diluted with OPTI-MEM (registered trademark) I Reduced-Serum Medium (Invitrogen Japan K. K.) to 200 ng/25 μL/well, and at the same time, Lipofectamine 2000 (Invitrogen Japan K. K.) was also diluted with OPTI-MEM (registered trademark) I Reduced-Serum Medium (Invitrogen Japan K. K.) to 0.5 μL/25 μL/well, followed by incubation at room temperature for 5 minutes. […]
(Calcium assays in cells follow changes in intracellular calcium, usually with a dye or a luminescent sensor.)

In assay [2] the test system is Sulprostone-Induced Bladder Contraction. Put plainly: Inhibitory effect of compound on sulprostone-induced bladder contraction. The class given is in vivo, rat. Particulars: female SD rats, urethane anesthesia, sulprostone 0.3 mg/kg s.c., test agent 1.0 mg/kg intravenously; for Bladder Contraction Inhibition Rate 15 minutes: 15 minutes from administration; for Bladder Contraction Inhibition Rate 60 minutes: 60 minutes from administration. An excerpt:
Inhibitory Effect of Compound on Sulprostone-Induced Bladder Contraction
Female SD rats were used. Under urethane anesthesia (1.25 g/kg, administered subcutaneously), a tracheal cannula (Size 8, HIBIKI) and a femoral vein cannula for administration (23 G needle-equipped PESO) were inserted thereinto. The bladder cannula (PESO) was inserted from the bladder apex. The bladder cannula was connected to a three-way stopcock, and then, one was connected to a pressure transducer and the other was connected to a syringe filled with saline. Saline was injected to the bladder at an injection rate of 3.6 mL/hour and the bladder contraction pressure was recorded at the time of injection with a recorder (RECTI-HORITZ-8K, NEC Corporation). After 10 minutes from stabilization of the bladder contraction pressure during urination, sulprostone was administered subcutaneously (0.3 mg/kg). Then, at the time point when the bladder contraction pressure became constant, a test agent was administered intravenously (1.0 mg/kg). An average bladder contraction pressure during the 10 minute period before administration of sulprostone was taken as a baseline (0%). Further, an average bladder contraction pressure during the 10 minute period directly before administration of the test agent was taken as a maximum bladder contraction pressure (100%). The average bladder contraction pressures were measured during 5 minutes before and after at 15 minutes and 60 minutes from administration of the test agent. The ratio of this measured value to the maximum bladder contraction pressure was calculated by the following equation and taken as an average bladder contraction rate after administration of the test agent: (Average Bladder Contraction Rate after Administration of Test Agent (%))=[(Average Bladder Contraction Pressure after Administration of Test Agent)/(Maximum Bladder Contraction Pressure)]×100 EQUATION 1
In addition, the difference between the maximum bladder contraction rate (100%) and the average bladder contraction rate (%) after administration of the test agent was calculated by the following equation and taken as a bladder contraction inhibition rate of the test agent: (Bladder Contraction Inhibition Rate)=100%−(Average Bladder Contraction Rate after Administration of Test Agent (%)) EQUATION 2

In the case of `CCS(=O)(=O)NC(=O)c1cccc(Cc2c(-c3ccsc3)[nH]c3cc(OC)ccc23)n1` [Example 3-35, N-ethanesulfonyl-6-(6-methoxy-2-thiophen-3-yl-1H-indol-3-ylmethyl)pyridine-2-carboxamide], the IC50 (usually the concentration that inhibits the measured activity by half) in assay [1] was 46 nM. Also, in assay [2], the “Bladder Contraction Inhibition Rate 15 minutes” value came to 45.9% and the “Bladder Contraction Inhibition Rate 60 minutes” value is 45.1%.

`c1ccc(-c2[nH]c3cc(C4CC4)ccc3c2Cc2cccc(-c3nnn[nH]3)n2)cc1` [Example 5-1, 6-Cyclopropyl-2-phenyl-3-[6-(1H-tetrazol-5-yl)pyridin-2-ylmethyl]-1H-indole]: the IC50 in assay [1] turned out to be 61 nM. Besides, in assay [2], the “Bladder Contraction Inhibition Rate 15 minutes” value stood at 82.8% and the “Bladder Contraction Inhibition Rate 60 minutes” value was found to be 91.6%.

In the case of `COc1ccc2c(Cc3cccc(-c4nnn[nH]4)n3)c(-c3ccccc3)[nH]c2c1` [Example 5-2, 6-methoxy-2-phenyl-3-[6-(1H-tetrazol-5-yl)pyridin-2-ylmethyl]-1H-indole], in assay [1], the IC50 amounted to 4.7 nM. For the same compound, in assay [2], the “Bladder Contraction Inhibition Rate 15 minutes” value is 88.2% and the “Bladder Contraction Inhibition Rate 60 minutes” value worked out at 76.2%.

`Cc1ccc2c(Cc3cccc(-c4nnn[nH]4)n3)c(-c3ccccc3)[nH]c2c1` [Example 5-3, 6-methyl-2-phenyl-3-[6-(1H-tetrazol-5-yl)pyridin-2-ylmethyl]-1H-indole]: in assay [1], the IC50 came to 15 nM. Further, in assay [2], the “Bladder Contraction Inhibition Rate 15 minutes” value is given as 78.2% and the “Bladder Contraction Inhibition Rate 60 minutes” value was found to be 75.8%.

In the case of `COc1ccc2c(Cc3cccc(-c4nnn[nH]4)n3)c(C(C)(C)C)[nH]c2c1` [Example 5-7, 2-tert-butyl-6-methoxy-3-[6-(1H-tetrazol-5-yl)pyridin-2-ylmethyl]-1H-indole], the IC50 in assay [1] is 20 nM. In assay [2], the “Bladder Contraction Inhibition Rate 15 minutes” value is given as 74.8% and the “Bladder Contraction Inhibition Rate 60 minutes” value was found to be 71.0%.

As for `COc1ccc2c(Cc3cccc(-c4nnn[nH]4)n3)c(-c3ccoc3)[nH]c2c1` [Example 5-11, 2-furan-3-yl-6-methoxy-3-[6-(1H-tetrazol-5-yl)pyridin-2-ylmethyl]-1H-indole], in assay [1], the IC50 was determined as 5.7 nM. In assay [2], the “Bladder Contraction Inhibition Rate 15 minutes” value stood at 99.0% and the “Bladder Contraction Inhibition Rate 60 minutes” value was determined as 99.8%.

For the compound `COc1ccc2c(Cc3cccc(-c4noc(=O)[nH]4)n3)c(-c3ccccc3)[nH]c2c1` [Example 7-1, 3-[6-(6-Methoxy-2-phenyl-1H-indol-3-ylmethyl)pyridin-2-yl]-4,5-dihydro-1,2,4-oxadiazol-5-one], the IC50 in assay [1] was determined as 26 nM. In addition, in assay [2], the “Bladder Contraction Inhibition Rate 15 minutes” value is listed as 66.3% and the “Bladder Contraction Inhibition Rate 60 minutes” value is 83.0%.

`COc1ccc2c(Cc3cccc(C(=O)NC#N)n3)c(-c3ccccc3)[nH]c2c1` [Example 10, N-Cyano-6-(6-methoxy-2-phenyl-1H-indol-3-ylmethyl)pyridine-2-carboxamide]: the IC50 in assay [1] is 26 nM. For the same compound, in assay [2], the “Bladder Contraction Inhibition Rate 15 minutes” value worked out at 82.9% and the “Bladder Contraction Inhibition Rate 60 minutes” value was found to be 90.7%.

Take `Cc1ccc2c(Cc3cccc(-c4noc(=O)[nH]4)n3)c(-c3ccoc3)[nH]c2c1` [Example 12-11]: the IC50 in assay [1] was 37 nM. Besides, in assay [2], the “Bladder Contraction Inhibition Rate 15 minutes” value is reported as 74.9% and the “Bladder Contraction Inhibition Rate 60 minutes” value is 46.7%.

Take `O=c1[nH]c(-c2cccc(Cc3c(-c4ccoc4)[nH]c4cc(C5CC5)ccc34)n2)no1` [Example 12-13]: the IC50 in assay [1] was 26 nM. In assay [2], the “Bladder Contraction Inhibition Rate 15 minutes” value was determined as 72.9% and the “Bladder Contraction Inhibition Rate 60 minutes” value is 96.0%.

For `COc1ccc2c(Cc3cccc(-c4noc(=O)[nH]4)n3)c(C3(C)CC3)[nH]c2c1` [Example 12-14], the IC50 in assay [1] stood at 39 nM. In addition, in assay [2], the “Bladder Contraction Inhibition Rate 15 minutes” value was found to be 80.5% and the “Bladder Contraction Inhibition Rate 60 minutes” value worked out at 59.1%.

As for `COc1ccc2c(Cc3cccc(-c4nnn[nH]4)n3)c(C3(C)CC3)[nH]c2c1` [Example 17-11, 6-methoxy-2-(1-methylcyclopropyl)-3-[6-(1H-tetrazol-5-yl)pyridin-2-ylmethyl]-1H-indole], in assay [1], the IC50 was 11 nM. In assay [2], the “Bladder Contraction Inhibition Rate 15 minutes” value was determined as 92.8% and the “Bladder Contraction Inhibition Rate 60 minutes” value is 100.9%.

`Cc1ccc2c(Cc3cccc(-c4nnn[nH]4)n3)c(C3(C)CC3)[nH]c2c1` [Example 17-12, 6-methyl-2-(1-methylcyclopropyl)-3-[6-(1H-tetrazol-5-yl)pyridin-2-ylmethyl]-1H-indole]: in assay [1], the half-inhibitory concentration (IC50) stood at 14 nM. Further, in assay [2], the “Bladder Contraction Inhibition Rate 15 minutes” value came out at 81.9% and the “Bladder Contraction Inhibition Rate 60 minutes” value amounted to 74.7%.

On to `COc1cc2[nH]c(C3(C)CC3)c(Cc3cccc(-c4nnn[nH]4)n3)c2cc1Cl` [Example 20-3, 5-chloro-6-methoxy-2-(1-methylcyclopropyl)-3-[6-(1H-tetrazol-5-yl)pyridin-2-ylmethyl]-1H-indole], for which the IC50 in assay [1] amounted to 27 nM. In assay [2], the “Bladder Contraction Inhibition Rate 15 minutes” value is 71.7% and the “Bladder Contraction Inhibition Rate 60 minutes” value is recorded as 50.0%.
